Source: US20020127287A1, “Treatment of lyso paf-mediated disorders with lyso paf or paf antagonists and procedure for determining their efficacy” (priority 1990, published 2002)
“And” between values parts separate entries of the source, which are not always exact repeats. Identical values can stand only once. Marks after values point to notes of the source that are not given here.

Columns and labels:
human platelets = assay: acetylhydrolase release from activated platelets; type: cell-based; conditions: Thrombin 0.5 IU/ml; for acetylhydrolase release: Paf 500 nM
Description: Results are expressed as mean±S.D. or S.E. and statistics were performed using the “Mann Whitney” test (n=3, n=5 or n=6 as indicated).

acetylhydrolase = acetylhydrolase activity, kinetic constants; type: biochemical, human; conditions: excess AAGPC
Description: Acetylhydrolase activity was measured in lysates of resting platelets or platelets stimulated with thrombin (0.5 IU/ml, 1 min, 37° C.), in supernatants of thrombin-activated platelets with or without acid-treated (inactivation of acetylhydrolase) plasma and in native plasma. Samples were incubated for 10 min at 37° C. in the presence of 0.1 μCi [^3H]acetyl paf and concentrations of unlabeled paf varying from 5 to 35 μM. The microenvironment modulates the acetylhydrolase indicating the origin of plasma acetylhydrolase from activated platelets.

PMN = assay: cytosolic free calcium (fura-2) in PMN; type: cell-based, human
Description: (§1) The concentration of cytosolic free calcium [Ca^2+]i was measured using the [Ca^2+]i indicator fura-2-acetoxymethyl ester (fura-2). […] The spectrofluorophotometer was programmed to shuttle between the two excitation wavelengths of 340 and 380 nm every 5 sec while keeping the emission wavelength of 505 nm. […] Background values were subtracted from all data. The intracellular Ca^2+ was calculated with the formula [[…] is KD of the fura-2 multiplied with the quotient of the fluorescence at 380 nm from the minimal and the maximal [Ca^2+]i fluorescence.

[1] = target: T1, paf receptors on eosinophils (Homo sapiens, UniProt P25105); assay: [^3H]paf binding to intact human eosinophils
T1 construct: endogenous in cells; host or cells: intact human blood eosinophils (about 96% pure)
T1 sequence (P25105 whole entry): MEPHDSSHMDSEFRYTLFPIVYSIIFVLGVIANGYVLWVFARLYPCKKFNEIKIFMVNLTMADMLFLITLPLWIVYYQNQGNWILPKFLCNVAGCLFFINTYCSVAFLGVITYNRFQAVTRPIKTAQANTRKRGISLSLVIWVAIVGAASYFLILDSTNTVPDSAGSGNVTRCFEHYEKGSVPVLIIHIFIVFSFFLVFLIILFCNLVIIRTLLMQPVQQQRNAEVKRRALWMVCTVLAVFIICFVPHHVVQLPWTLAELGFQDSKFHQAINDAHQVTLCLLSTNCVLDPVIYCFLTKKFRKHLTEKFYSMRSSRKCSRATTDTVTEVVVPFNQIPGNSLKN
Description: Eosinophils were also prepared under sterile conditions. Blood (400 ml) was mixed with 10% (v/v) dextran. The supernatant was carefully deposited on a metrizoate/ficoll suspension (d=1.148) after sedimentation of red blood cells and centrifuged (400×g: 40 min). Erythrocyte lysis was performed by adding 3 v. of distilled water for 40 sec, followed by 1 v. NaCl (3.5%, w/v). Cells were suspended in 500 μl pH 7.4 Tyrode's buffer, centrifuged (1900 rpm×10 min) and resuspended (5×10^6 cells/ml) in Tyrode's (0.25% BSA) without Ca^2+. The eosinophils fraction at 1×10^6 cells/ml contained 96±5% eosinophils, 3±3% neutrophils, 1±2% mononuclear cells and no free platelets (mean±s.d., n=3).
(§2) Binding studies were performed using, for example, intact neutrophils (PMN) or intact human blood eosinophils. PMN (2.5×10^6) or eosinophils (2.5×10^5) were suspended in 500 μl Tyrode's buffer supplemented with 1.3 mM CaCl2, 1 mM MgCl2 and 0.25% (v/v) fatty acid-free bovine serum albumin (BSA, w/v) were incubated with [^3H]paf (0.325-6.5 nM) either for 30 min at 20° C. or for 20 hrs at 4° C. Non-specific binding was assessed with the unlabeled ligands either paf (500 nM) or the receptor antagonist WEB 2086 (1 μM or 400 nM).
Eosinophils were added to Tyrode's (0.25% BSA, 1.3 mM CaCl2, 1 mM MgCl2) containing [3H]paf (0.325-6.5 nM) in the absence or presence of unlabeled paf, lyso paf, enantio-paf or lyso-phosphatidylcholine (LPC) (5, 10, 50, 500 nM) and/or the specific paf receptor antagonist WEB 2086 (400 nM). After the binding procedure, cells were separated from their suspending medium by filtration in a millipore vacuum system with GF/C filters. Filters were washed with 10 ml Tyrode's buffer at 4° C. and radioactivity was assessed by scintillation. Cell-bound radioactivity on the filters after subtraction of blanks (filter-bound radioactivity in the absence of cells) was expressed in fmol [^3H]paf bound per 2.5×10^6 PMN or 2.5×10^5 eosinophils.

[2] = target: T2, paf receptors on neutrophils (PMN) (Homo sapiens, UniProt P25105); assay: [^3H]paf binding to intact human neutrophils (PMN)
T2 construct: Neutrophils (PMN) were prepared from venous blood (40 ml) from normal donors; endogenous in cells; host or cells: intact neutrophils (PMN) from venous blood of normal donors
T2 sequence (P25105 whole entry): as above
Description: (§3) Neutrophils (PMN) were prepared from venous blood (40 ml) from normal donors, anticoagulated with citric acid dextrose (7:1, v/v) was sedimented for 30 to 45 min in gelatin 0.3% final (Plasmagel®). Twenty ml of supernatant were layered on 10 ml Ficoll Hypaque (d=1.077) and centrifuged (400×g, 20 min, 20° C.). The cell pellet containing PMN (95%) was resuspended in 500 μl Tyrode's buffer (pH=7.4). Erythrocyte lysis was performed by adding 3 volumes of distilled water for 40 sec. followed by 1 volume NaCl (3.5%, w/v). PMN were then washed twice in Tyrode's buffer (centrifugation at 370×g at 20° C. for 10 min). Cell concentration was adjusted to 5×10^7 per ml.
as §2
In a second set of experiments, [^3H]paf binding was performed by adding 3.25 nM [^3H]paf to PMN, simultaneously with low dose (5 to 50 nM) of paf, lyso paf, the enantiomer of paf or 2-lyso phosphatidylcholine (LPC) for 30 min at 20° C. [^3H]paf binding was also measured in the presence of the phorbol ester 4-phorbol-12-myristate-13-acetate (PMA, 1 to 16 nM) either added simultaneously with [^3H]paf or preincubated 15 min at 37° C. previously. […] After the binding procedure, cells were separated from their suspending medium by filtration in a millipore vacuum system with GF/C filters. Filters were washed with 10 ml Tyrode's buffer at 4° C. and radioactivity was assessed by scintillation. Cell-bound radioactivity on the filters after subtraction of blanks (filter-bound radioactivity in the absence of cells) was expressed in fmol [^3H]paf bound per 2.5×10^6 PMN or 2.5×10^5 eosinophils.

endothelial cell = assay: [^3H]paf binding to endothelial cells
[3] = system: lyso paf receptors on neutrophils (PMN); assay: [^3H]lyso paf binding to neutrophils (PMN); design: species or system human; conditions: for effect of unlabeled ligand on [^3H]lyso paf binding: excess unlabeled paf or lyso paf 500 nM, WEB 2086 1 μM, 20° C.
Description: as §3
The binding of [^3H]lyso paf (0.325-0.5 nM) was measured after 30 min incubation at 20° C. in the absence or presence of an excess of unlabeled lyso paf (500 nM), paf (500 nM) or WEB 2086 (1 μM). The effect of low dose paf (5 nM) on the binding of [^3H]lyso paf was also investigated. […] After the binding procedure, cells were separated from their suspending medium by filtration in a millipore vacuum system with GF/C filters. Filters were washed with 10 ml Tyrode's buffer at 4° C. and radioactivity was assessed by scintillation. Cell-bound radioactivity on the filters after subtraction of blanks (filter-bound radioactivity in the absence of cells) was expressed in fmol [^3H]paf bound per 2.5×10^6 PMN or 2.5×10^5 eosinophils.

eosinophils = assay: cytosolic free calcium (fura-2) in eosinophils; type: cell-based, human; conditions: EGTA 2 mM
Description: as §1

[4] = system: endothelial cell prostacyclin release; assay: endothelial cell prostacyclin release (6-keto-PGF1-alpha); type: cell-based
U 937 cells = assay: cAMP levels of U 937 cells; type: cell-based; conditions: cholesterol 60 μg/ml, 24 hrs
Description: U 937 cells were grown in stationary suspension culture in RPMI 1640 containing 10% fetal calf serum (FCS) and 2 mM L-glutamine at 37° C. in a humidified atmosphere of 5% CO2 and 95% air. The cells were diluted with fresh medium (1/10, v/v) twice a week. After three days in culture, U 937 cells were centrifuged (1000×G for 10 min) and incubated for 24 hrs in RPMI 1640 medium containing 10% CPSR 1 (delipidated FCS) and 2 mM L-glutamine. Subsequently the cells were incubated in the delipidated FCS medium containing cholesterol (10-60 μg/ml), as compared with solvent alone (ethanol, 0.5% v/v, final concentration) for (2, 4 or 24 hrs).
Cyclic AMP in supernatants from cholesterol-treated and control cells, were measured by the Rianen [^125I]cAMP-RIA Kit. Briefly, cholesterol (60 μg/ml, 24 hrs) or cholesterol vehicle (ethanol) were added after 24 hrs cell incubation in delipidated FCS medium. Cells were subsequently washed three times and resuspended (5×10^6, final concentration) in Hanks Hepes (HH)-buffer, pH 7.4 with ascorbinic acid (10 mM) and cAMP-phosphodiesterase inhibitor IBMX (1 mM). Cell suspension (100 μl) was added to 400 μl of the cAMP buffer for 30 min at 20° C. […] Values are from one experiment (representative of three) expressed as pmol cAMP per 10^6 cells. Total proteins were measured by standard procedure.

[5] = Add. 5 nM, [^3H]paf […], 20° C., 30 min, WEB 2086 1 μM

## Thrombin
Human platelets; paf 500 nM, mean±S.E., n=3
  released of the total acetylhydrolase: 17.2±3.1%
Human platelets; stimulation 0 sec
  acetylhydrolase release: 2.2 ± 0.9 percentage of the total content of acetylhydrolase
Human platelets; stimulation 15 sec
  acetylhydrolase release: 8.5 ± 0.7 percentage of the total content of acetylhydrolase
Human platelets; stimulation 30 sec
  acetylhydrolase release: 13.1 ± 3.9 percentage of the total content of acetylhydrolase
Human platelets; stimulation 60 sec
  acetylhydrolase release: 12.8 ± 5.1 percentage of the total content of acetylhydrolase
Human platelets; stimulation 120 sec
  acetylhydrolase release: 10.9 ± 3.1 percentage of the total content of acetylhydrolase
Human platelets; stimulation 180 sec
  acetylhydrolase release: 17.9 ± 2.6 percentage of the total content of acetylhydrolase
Human platelets; stimulation 300 sec
  acetylhydrolase release: 17.2 ± 3.1 percentage of the total content of acetylhydrolase

## CCCCCCCCCCCCCCCCOCC(COP(=O)([O-])OCC[N+](C)(C)C)OC(=O)CCCCCCCCCCCCCCC (stereo not shown) [AAGPC, 1-O-hexadecyl-2-palmitoyl-GPC]
acetylhydrolase
  inhibition of acetylhydrolase activity: not inhibited

## Cc1nnc2n1-c1sc(CCC(=O)N3CCOCC3)cc1C(c1ccccc1Cl)=NC2 [WEB 2086, 3-(4-(2-chlorophenyl)-9-methyl-6H-thieno(3,2-f) (1,2,4)triazolo-(4,3-a)-(1,4)diazepine-2-yl)-1-(4-morpholinyl)-1-propanone]
PMN; WEB 2086 1 μM, 3 min preincubation
  effect on paf-induced Ca^2+ flux: shifted to the right the paf dose-response curve
[1]; 20° C., 30 min, WEB 2086 400 nM, 3 experiments
  specific [^3H]paf binding, plateau values: 25.8 ± 8.1 fmol
[1]; 20° C., 30 min, WEB 2086 400 nM, 3 other experiments, no inhibitory effect
  specific [^3H]paf binding: 4.3 ± 3.3 fmol
[1]; 20 hrs at 4° C., assessed with unlabeled paf 500 nM or WEB 2086 400 nM
  specific [^3H]paf binding, maximal plateau values: 14.8±5.1 fmol per 2.5×10^5 cells
[1]; addition 0 nM, WEB 2086 400 nM, 20° C., 30 min
  specific [^3H]paf binding: 15.1 ± 8.0^1) fmol per 2.5×10^5 cells
[2]; paf 500 nM, WEB 2086 1 μM
  effect of excess unlabeled ligand on [^3H]paf binding: inhibited
Endothelial cell
  increased phospholipid binding (lysine aspirin) antagonized: antagonized
[3]
  effect of unlabeled ligand on [^3H]lyso paf binding: inefficient
[3]; paf 5 nM with WEB 2086 1 μM
  binding of […] [^3H]lyso paf: 212.0±6.4 fmol/2.5×10^6 PMN
eosinophils
  effect on paf-mediated [Ca^2+]i rise: competitively inhibited
[4]; 100 nM WEB 2086, increased from 127±3
  6-keto-PGF1-alpha: 145±11 pg per ml

## CC(C)CCC[C@@H](C)[C@H]1CC[C@H]2[C@@H]3CC=C4C[C@@H](O)CC[C@]4(C)[C@H]3CC[C@]12C [Cholesterol, cholesterol]
U 937 cells
  release of cAMP levels: increased

## COc1ccc(SCC(=S)N2CCc3c(sc4c3C(c3ccccc3Cl)=NCc3nnc(C)n3-4)C2)cc1OC [BN 50 739]
Endothelial cell; 20 μM
  inhibited endothelial cell bound [^3H]paf: 5.8 fmol

## CC(=O)Oc1ccccc1C(=O)O.NCCCCC(N)C(=O)O [Lysine aspirin]
Endothelial cell
  endothelial cell bound [^3H]paf, % of the total binding: 177% and 198%

## CCCCCCCCCCCCCCCCCCNC(=O)OCC(COP(=O)([O-])OCC[n+]1ccsc1)OC (racemic) [CV 3988, rac-3-(N-n-octadecylcarbamoyloxy)-2-methoxypropyl 2-tiazolioethyl phosphate]
Endothelial cell
  increased phospholipid binding (lysine aspirin) antagonized: antagonized

## CCCCCCCCCCCCCCCCCCOC[C@@H](O)COP(=O)([O-])OCC[N+](C)(C)C [lyso paf, 1-octadecyl-sn-glycero-3-phosphocholine]
PMN; 1 to 500 nM, CaCl2 1.3 mM or EGTA 2 mM
  cytoplasmic Ca^2+ flux in response to agonist: induced neither [Ca^2+]i entry nor mobilization
[1]
  interference with [3H]paf binding: did not interfere
[1]; addition 5 nM, WEB 2086 400 nM, 20° C., 30 min
  specific [^3H]paf binding: 1.5 ± 1.7 fmol per 2.5×10^5 cells
[1]; addition 10 nM, WEB 2086 400 nM, 20° C., 30 min
  specific [^3H]paf binding: 1.2 ± 1.6 fmol per 2.5×10^5 cells
[1]; addition 50 nM, WEB 2086 400 nM, 20° C., 30 min
  specific [^3H]paf binding: 4.4 ± 3.7 fmol per 2.5×10^5 cells
[2]; [5]
  [^3H]paf binding: 354 ± 20 fmol [^3H]paf bound per 2.5×10^6 PMN
[2]; Add. 10 nM, [^3H]paf […], 20° C., 30 min, WEB 2086 1 μM
  [^3H]paf binding: 243 ± 16 fmol [^3H]paf bound per 2.5×10^6 PMN
[2]; Add. 50 nM, [^3H]paf […], 20° C., 30 min, WEB 2086 1 μM
  [^3H]paf binding: 240 ± 18 fmol [^3H]paf bound per 2.5×10^6 PMN
[3]
  effect of unlabeled ligand on [^3H]lyso paf binding: inhibited

## CCCCCCCCCCCCCCCCCCOC[C@H](COP(=O)([O-])OCC[N+](C)(C)C)OC(C)=O [[^3H]paf] [1-O-[^3H]-octadecyl-2-acetyl-sn-glycero-3-phosphocholine]
[1]
  binding sites per eosinophil: 85×10^3 sites per eosinophil
[1]; 20 hrs at 4° C.
  Bmax: 35.4 fmol per 2.5×10^5 cells
[1]; 20 hrs at 4° C., read-out: binding affinity (Kd) on eosinophils
  Kd: 5.5 nM
[2]; 4° C.
  Kd: 0.44 nM
  total binding of [^3H]paf: 157.0±27.4 fmol per 2.5×10^6 cells
[2]; 20° C.
  total binding of [^3H]paf: 310.5±13.0 fmol per 2.5×10^6 cells

## CCCCCCCCCCCCCC(=O)O[C@@H]1[C@@H](C)[C@@]2(O)[C@@H](C=C(CO)C[C@]3(O)C(=O)C(C)=C[C@@H]23)[C@@H]2C(C)(C)[C@]12OC(C)=O [PMA, phorbol-12-myristate-13-acetate]
[2]; PMA 1 nM, preincubation 0 min at 37° C.
  [^3H]paf binding: 385 fmol [^3H]paf bound per 2.5×10^6 PMN
[2]; PMA 1 nM, preincubation 15 min at 37° C.
  [^3H]paf binding: 413 fmol [^3H]paf bound per 2.5×10^6 PMN
[2]; PMA 16 nM, preincubation 0 min at 37° C.
  [^3H]paf binding: 219 fmol [^3H]paf bound per 2.5×10^6 PMN
[2]; PMA 16 nM, preincubation 15 min at 37° C.
  [^3H]paf binding: 171 fmol [^3H]paf bound per 2.5×10^6 PMN

## CC1C(=O)OC2C(O)C34C5CC(C(C)(C)C)C36C(OC(=O)C6O)OC4(C(=O)O5)C12O (stereo not shown) [BU 52021]
[4]; 10 μM, increased from 50±2
  endothelial cell prostacyclin release: 126±10 pg per ml

## 2-lyso phosphocholine [LPC]
[1]
  interference with [3H]paf binding: did not interfere
[2]; [5]
  [^3H]paf binding: 322 ± 22 fmol [^3H]paf bound per 2.5×10^6 PMN
